According to US20250115828A1, “INACTIVATING AGENT FOR ENVELOPED VIRUSES” (priority 2022, published 2025):
Like-named read-outs stand apart in the source and are kept apart here.

Experiments:
[1] = Critical micelle concentration at 25° C. by pyrene fluorescence intensity ratio I1/I3; format: physicochemical; conditions: ion exchange water
Procedure: A critical micelle concentration of component (a) or (a′) at 25° C. was measured by the method below.
A 1×10^−3 mol/L ethanol solution of pyrene (FUJIFILM Wako Pure Chemical Corporation) was prepared in a brown screw cap tube, and 5 μl of the solution was placed in a screw cap tube (No. 3) and dried with dry air. 5 mL of an aqueous solution of component (a) or (a′) to be measured (prepared with ion exchange water) was added thereto and processed with an ultrasonic cleaner for 15 minutes, and using this, fluorescence spectrum measurements were performed with a fluorescence spectrophotometer (Fluorescence Spectrophotometer F-7000 (manufactured by Hitachi High-Tech Corporation)). Fluorescence intensities I1 and I3 at wavelengths λ1 of 373 nm and λ3 of 384 nm were measured under the measurement conditions below to calculate fluorescence intensity ratio I1/I3.
A graph was prepared on which the horizontal axis plots a concentration of component (a) or (a′) and the vertical axis plots a fluorescence intensity ratio I1/I3, at each concentration, and a surfactant concentration at the midpoint between the maximum value and the minimum value of I1/I3 was taken as the critical micelle concentration.
Excitation wavelength: 339 nm, slit on the excitation side: […], slit on the fluorescence side: […], scanning rate: 60 nm/min, liquid temperature: 25° C., measurement range: 350 to 400 nm

[2] = tested on: Influenza A virus (H1N1, A/PR/8/34) ATCC VR-1469; assay: Anti-influenza virus verification test (focus assay on MDCK cells); format: cell-based; conditions: for Evaluation result (Δ LOG (FFU/mL) class) / Minimum inactivation concentration: Influenza virus; for inactivation effect in the presence of hardness components (in words): Table 5: influenza virus, 4 °DH, contact 10 min; for Minimum inactivation concentration: minimum concentration at which Δ LOG (FFU/mL) is 3 or more
[3] = tested on: Betacoronavirus 1 (OC43) ATCC VR-1558; assay: Anti-human coronavirus verification test (TCID50 on HCT-8 cells); format: cell-based
[4] = tested on: Pseudomonas syringae phage ϕ6 (NBRC 105899); assay: Anti-bacteriophage ϕ6 verification test (plaque assay); format: cell-based; conditions: Bacteriophage Φ6; hardness of water 0 °DH; contact time 10 min; minimum concentration at which Δ LOG (PFU/mL) is 3 or more
[5] = Krafft point measurement with rhodamine 6G; format: physicochemical; conditions: 0.2 mass % in ion exchange water
Procedure: A krafft point of component (a) or (a′) was measured by the method below.
A solution obtained by diluting component (a) or (a′) with ion exchange water to attain a total amount of 5 mL and a concentration of 0.2 mass % was prepared and placed in a glass test tube, and the fluorescent dye rhodamine 6G (FUJIFILM Wako Pure Chemical Corporation) was then added to attain a final concentration of 0.02 mM. After the test tube was placed in an ice bath to condition a temperature at 5° C., the temperature was raised at a temperature rise rate of 0.5° C./min, and a temperature at which the solution emitted fluorescence was taken as the krafft point. Component (a) or (a′) which had emitted fluorescence at 5° C. was considered to have a krafft point of less than 5° C.

[6] = 500 ppm, hardness of water 4 °DH, contact time 10 min
[7] = Human coronavirus, hardness of water 0 °DH, contact time 10 min, […]
[8] = 100 ppm, hardness of water 0 °DH, contact time 0.5 min
[9] = 100 ppm, hardness of water 0 °DH, contact time 1 min
[10] = 100 ppm, hardness of water 0 °DH, contact time 5 min
[11] = 100 ppm, hardness of water 0 °DH, contact time 10 min
[12] = hardness of water 0 °DH, contact time 10 min

Compound	critical micelle concentration (25° C.) [1]	Evaluation result (Δ LOG (FFU/mL) class) [2, 6]	inactivation effect in the presence of hardness components (in words) ([2]; 500 ppm)	Minimum inactivation concentration [3, 7]	Minimum inactivation concentration [4]	Evaluation result (Δ LOG (FFU/mL) class) [2, 8]	Evaluation result (Δ LOG (FFU/mL) class) [2, 9]	Evaluation result (Δ LOG (FFU/mL) class) [2, 10]	Evaluation result (Δ LOG (FFU/mL) class) [2, 11]	Minimum inactivation concentration [2, 12]	inactivation effects on the enveloped virus by short-time contact (in words) ([2]; Table 4: influenza virus, 100 ppm, 0 °DH, contact 0.5 to 10 min, compared to comparative examples 5 and 6)	krafft point [5]	Minimum inactivation concentration [3]
CCCCCCCC/C=C\CCCCCCCC(=O)[O-].[K+] [(a′-5), potassium oleate]	0.0015 mol/L	1 (a Δ LOG (FFU/mL) of the infectious titers of less than 1)	insufficient inactivation effect										
sodium di(2-propylheptyl)sulfosuccinate [(a-1)]	0.00035 mol/L	4 (a Δ LOG (FFU/mL) of 3 or more)	high inactivation effects	100 ppm	10 ppm	4 (a Δ LOG (FFU/mL) of 3 or more)	4 (a Δ LOG (FFU/mL) of 3 or more)	4 (a Δ LOG (FFU/mL) of 3 or more)	4 (a Δ LOG (FFU/mL) of 3 or more)	50 ppm	high inactivation effects		
CCCCCCCCCCCCOS(=O)(=O)[O-].[Na+] [(a′-4), sodium alkyl sulfate with 12 carbons]	0.0082 mol/L			>2000 ppm	>500 ppm					>500 ppm			
CCCCCCCCCCCCCCCCOS(=O)(=O)[O-].[Na+] [(a′-3), sodium alkyl sulfate with 16 carbons]	0.00045 mol/L			>>2000 ppm	>500 ppm					>500 ppm		40 °C	
CCCCC(CC)COC(=O)CC(C(=O)OCC(CC)CCCC)S(=O)(=O)[O-].[Na+] (stereo not shown) [(a′-1), sodium di(2-ethylhexyl)sulfosuccinate]	0.0028 mol/L				250 ppm	1 (a Δ LOG (FFU/mL) of the infectious titers of less than 1)	1 (a Δ LOG (FFU/mL) of the infectious titers of less than 1)	1 (a Δ LOG (FFU/mL) of the infectious titers of less than 1)	2 (a Δ LOG (FFU/mL) of 1 or more and less than 2)	250 ppm			>250 ppm
